Our source for the inhibition values is PMC6934184, “Selective DNA-PKcs inhibition extends the therapeutic index of localized radiotherapy and chemotherapy” (The Journal of Clinical Investigation, 2019).

The target in the assay is T1, CASK (Homo sapiens, UniProt O14936).
T1 construct: purchased Thermo Fisher Scientific (Life Technologies) SelectScreen
The experiment in a line: SelectScreen LanthaScreen. Format: binding. The note with it: read-out: % displacement. In a few lines:
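NU5455 was profiled across the SelectScreen Broad panel of kinase activity and binding assays. Z'LYTE reactions such as CSF1R ran at apparent Km ATP, while the Adapta CAMK1 assay used ATP listed as 10. Values are given as percent.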

T1 sequence (O14936 whole entry): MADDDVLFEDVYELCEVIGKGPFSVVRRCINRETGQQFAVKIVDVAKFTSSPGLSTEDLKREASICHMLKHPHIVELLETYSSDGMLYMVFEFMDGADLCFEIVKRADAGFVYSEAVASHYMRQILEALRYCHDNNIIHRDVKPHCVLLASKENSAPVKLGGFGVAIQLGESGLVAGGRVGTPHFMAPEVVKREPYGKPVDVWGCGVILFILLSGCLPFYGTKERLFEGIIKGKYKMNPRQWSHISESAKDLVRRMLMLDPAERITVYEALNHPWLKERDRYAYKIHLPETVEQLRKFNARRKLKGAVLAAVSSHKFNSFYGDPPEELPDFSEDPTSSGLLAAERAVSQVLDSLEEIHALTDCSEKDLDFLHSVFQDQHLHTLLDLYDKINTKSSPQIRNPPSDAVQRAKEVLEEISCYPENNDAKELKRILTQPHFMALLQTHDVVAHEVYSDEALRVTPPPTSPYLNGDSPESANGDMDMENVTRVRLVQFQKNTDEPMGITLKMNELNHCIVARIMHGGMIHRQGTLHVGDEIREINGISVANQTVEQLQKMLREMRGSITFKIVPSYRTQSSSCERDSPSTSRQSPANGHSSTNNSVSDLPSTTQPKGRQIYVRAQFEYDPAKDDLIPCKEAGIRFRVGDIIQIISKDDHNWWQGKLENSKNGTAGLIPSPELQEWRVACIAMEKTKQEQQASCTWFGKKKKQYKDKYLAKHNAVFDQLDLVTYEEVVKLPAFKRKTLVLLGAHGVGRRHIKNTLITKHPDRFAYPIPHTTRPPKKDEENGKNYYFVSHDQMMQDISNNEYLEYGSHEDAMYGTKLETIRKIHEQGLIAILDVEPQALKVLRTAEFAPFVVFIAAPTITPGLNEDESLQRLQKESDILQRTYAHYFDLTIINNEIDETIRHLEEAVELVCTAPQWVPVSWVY

Take `CN(C(=O)CN1CCOCC1)c1ccc2sc3c(-c4cccc5c(=O)cc(N6CC7CCC(C6)O7)oc45)cccc3c2c1` [NU5455]: the inhibition at 1 µM is -3.1%.
